Read-outs that look alike come from different tables or passages of the source.
Assays:
[1] = test system: Sinapis alba myrosinase; assay: HPLC progress curves, pooled wavelengths; type: biochemical; conditions: read-out: Km (μM) / HPLC, 0.1 M phosphate pH 7.4, 37 °C
[2] = test system: Sinapis alba myrosinase; assay: HPLC progress curves, pooled wavelengths; type: biochemical; conditions: read-out: Km (μM) / HPLC; 0.1 M phosphate pH 7.4, 37 °C; 14.52 U/ml myrosinase

SMILES: C=CC/C(=N/OS(=O)(=O)O)S[C@@H]1O[C@H](CO)[C@@H](O)[C@H](O)[C@H]1O [compound 4, Sinigrin]
- Km ([1]; 4.27 U/ml myrosinase): 168 ± 17 µM

SMILES: O=S(=O)(O)O/N=C(\S[C@@H]1O[C@H](CO)[C@@H](O)[C@H](O)[C@H]1O)c1ccccc1 [compound 5, Phenyl glucosinolate]
- Km [2]: 1160 ± 70 µM

SMILES: O=S(=O)(O)O/N=C(/Cc1ccccc1)S[C@@H]1O[C@H](CO)[C@@H](O)[C@H](O)[C@H]1O [compound 6, glucotropaeolin]
- Km ([1]; 4.84 U/ml myrosinase): 90.6 ± 6.8 µM
